Source: article PMC12177781, “Chalcogen Derivatives for the Treatment of African Trypanosomiasis: Biological Evaluation of Thio- and Seleno-Semicarbazones and Their Azole Derivatives” (ACS Omega, 2025)
Where “and” joins values, the source holds several entries; their conditions need not be identical. Equal entries are not always repeated.

How the values were obtained:
TbrCATL = conditions: cited from earlier work
[1] = target: T. brucei cathepsin L-like protease (TbrCATL) (Trypanosoma brucei rhodesiense, UniProt Q95PM0); experiment: TbrCATL inhibition assay, Z-FR-AMC substrate; assay type: biochemical; conditions: for SI TbrCATL: IC50 hCatL/IC50 TbrCATL
Description: (§1) All experiments were performed in a 384-well black microplate, using a Synergy HTX (Biotek) plate reader at 25 °C with absorption/emission wavelengths of 360/460 nm. Assays were performed in triplicate wells and DMSO was used as a vehicle control. Enzyme activity was measured and normalized to DMSO controls, and the inhibitor E-64 (10 μM) was used as a positive control for all assays. Experiments were performed in triplicate, with at least two independent assays (n = 6 data points). IC50 values were determined through nonlinear regression. The data obtained were analyzed using GraphPad Prism 9.0 (GraphPad Software, La Jolla, California, US).
The screening assay was performed using 0.5 nM of TbrCATL diluted in 0.1 M sodium acetate, 1 mM dithiothreitol (DTT), and 0.01% Triton X-100, pH 5.5. TbrCATL was expressed and purified as described. Enzyme the compound (10 μM), were incubated for 10 min at room temperature. Then the substrate, Z-Phe-Arg-amidomethylcoumarin (Z-FR-AMC; Sigma-Aldrich, C9521), was added (30 μL diluted in the same assay buffer) to yield a final concentration of 2.5 μM and the assay allowed to proceed for 10 min. […] For those compounds inhibiting enzyme activity by >85%, DR assays were performed over 15 2-fold serial dilutions starting at 0.5 or 20 μM.

hCatL = conditions: E-64, from ref. (number not given); cited from earlier work
HEK293 cells [2] = conditions: human
[3] = target: T1, human cathepsin L (hCatL) (Homo sapiens, UniProt P07711); experiment: hCatL inhibition assay, Z-FR-AMC substrate; assay type: biochemical; conditions: mean ± SD, two experiments in triplicate (n = 6)
T1 construct: purchased R&D Systems 952-CY
Description: as §1
Recombinant hCatL was purchased from R&D Systems (952-CY) and activated according to the manufacturers protocol. This enzyme, hCatL, is used to test compounds’ selectivity because it is the human homologue of TbrCATL. The assay was modified from, using 25 pM of the enzyme diluted in 40 mM sodium acetate, 5 mM DTT, 100 mM NaCl, 1 mM EDTA and 0.01% Triton X-100, pH 5.5. Enzyme and compound (10 μM), were incubated for 30 min at room temperature. Then Z-FR-AMC was added (30 μL diluted in the same assay buffer) to yield a final concentration of 25 μM and the assay allowed to proceed for 10 min. DR assays were performed over 15 2-fold serial dilutions starting at 0.5 or 20 μM.

[4] = tested on: T. brucei brucei Lister 427; experiment: T. b. brucei Lister 427 bloodstream-form growth inhibition, SYBR Green viability assay, 72 h; assay type: cell-based, Trypanosoma brucei brucei; conditions: for T. brucei inhibition (%): growth inhibition at 10 µM, ± SD
HEK293 cells [5] = experiment: HEK293 cytotoxicity, CellTiter-Glo, 48 h; conditions: Homo sapiens, HEK293, read-out: HEK293 inhibition (%)
HepG2 cells [6] = experiment: HepG2 cytotoxicity, CellTiter-Glo, 48 h; conditions: Homo sapiens, HepG2, read-out: HepG2 inhibition (%)
in vitro [7] = conditions: human, CC50 HepG2 (μM)
HepG2 cells [8] = conditions: human
cruzain (Cz) = conditions: cited from earlier work
in vitro [9] = conditions: human, CC50 HEK293 (μM)
C2C12 cells = conditions: read-out: Toxicity CC50 C2C12 cells; cited from earlier work
[10] = DPPH radical scavenging (antioxidant) assay; conditions: after 2 h, mean ± SEM
T. cruzi CAI/72 = conditions: cited from earlier work

Chain of T. brucei cathepsin L-like protease (TbrCATL) (Q95PM0 1-450): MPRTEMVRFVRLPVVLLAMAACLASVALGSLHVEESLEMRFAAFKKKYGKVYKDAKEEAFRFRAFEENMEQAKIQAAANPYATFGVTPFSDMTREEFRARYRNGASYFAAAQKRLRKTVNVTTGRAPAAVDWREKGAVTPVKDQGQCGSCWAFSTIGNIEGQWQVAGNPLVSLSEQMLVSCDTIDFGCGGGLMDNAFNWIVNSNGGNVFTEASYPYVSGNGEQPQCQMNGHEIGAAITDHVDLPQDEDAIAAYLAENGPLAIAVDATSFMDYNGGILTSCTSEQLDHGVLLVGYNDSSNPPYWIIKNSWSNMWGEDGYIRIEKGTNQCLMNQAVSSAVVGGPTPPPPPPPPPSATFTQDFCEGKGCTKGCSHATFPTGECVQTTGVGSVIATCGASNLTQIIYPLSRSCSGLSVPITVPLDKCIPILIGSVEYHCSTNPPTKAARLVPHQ
T1 sequence (P07711 114-333): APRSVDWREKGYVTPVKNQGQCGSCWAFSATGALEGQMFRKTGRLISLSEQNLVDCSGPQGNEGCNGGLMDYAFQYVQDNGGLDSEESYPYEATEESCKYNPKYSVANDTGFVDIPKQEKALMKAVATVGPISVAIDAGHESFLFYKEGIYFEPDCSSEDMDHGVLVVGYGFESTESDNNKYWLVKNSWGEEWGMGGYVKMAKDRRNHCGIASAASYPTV

For `CC(C)C[C@H](NC(=O)[C@H]1O[C@@H]1C(=O)O)C(=O)NCCCCN=C(N)N` [Compound E-64, E-64], the IC50 (TbrCATL) is given as 3.1 nM, the “SI TbrCATL” value [1] is given as 10 and the IC50 (hCatL) is given as 30 ± 4 nM.

Work on `C/C(=N\NC(N)=[Se])c1ccc(Br)cc1` [SeO3] yielded a CC50 (HEK293 cells [2]) of 2820 ± 110 nM, an IC50 [3] of 9.87 ± 0.63 nM and an EC50 ([4]; Trypanosoma brucei, three independent experiments in duplicate (n = 6) ± SD, read-out: EC50 T. brucei) of 470 ± 20 nM. For the same compound, the “T. brucei inhibition (%)” value ([4]; 10 µM) was 100 ± 2%, the “T. brucei inhibition (%)” value ([4]; listed as Se O3, 10 µM) was > 70% and the inhibition at 10 µM (HEK293 cells [5]) was 100%. The inhibition at 10 µM (HepG2 cells [6]) was 71 ± 15%, the CC50 (in vitro [7]) was 2.82 µM and the CC50 (HepG2 cells [8]) was 2700 ± 160 nM. The IC50 ([1]; IC50 TbrCATL (nM), mean ± SD, two experiments in triplicate (n = 6)) was 9.87 nM and 1.22 nM, the “SI TbrCATL” value [1] was 8 and the “TbrCATL inhibition (%)” value ([1]; at 10 μM) was 99.15%. The inhibition at 10 µM ([1]; read-out: TbrCATL inhibition (%), at 10 μM) was > 85%, the IC50 (cruzain (Cz)) was 14.3 ± 3.57 nM and the CC50 (in vitro [9]) was 2.7 µM. The CC50 (C2C12 cells) was > 10000 nM, the “% inhibited DPPH” value ([10]; 0.015 mg/ml) was 23.00 ± 13.43% and the “% inhibited DPPH” value ([10]; 0.03 mg/ml) was 75.00 ± 2.65%. The “% inhibited DPPH” value ([10]; 0.06 mg/ml) was 77.67 ± 1.45% and the EC50 (T. cruzi CAI/72) was 770 ± 170 nM.
